For data set [1], the system named is Punta Toro virus (strain Adames).
Data set [2] is described as follows: in vitro. Particulars: human.
The next data set has as its system SARSCoV. Kind of data set: organism not typed. It is filed as cell-based. Particulars: read-out: SARSCoV IC50.
The nature of data set [3]: in vitro. The conditions noted are these: human. This is another data set of the same source.
For another data set, the system named is HIV-1 (strain LAI). It is filed as cell-based.
The test system of another data set is PBM cells. The conditions noted are these: human.

Where only a bound is given, the exact number is not on record here.

Regarding `O=c1[nH]cc([C@@H]2C=C(CO)[C@@H](O)[C@H]2O)c(=O)[nH]1` [Compound 4, (1′S,2′S,3′R)-5-(2′,3′-Dihydroxy-4′-hydroxymethyl-4′-cyclopenten-1′-yl)uracil], in data set [1], the “Cytotoxicity in the Punta Toro virus assay (in words)” value was “without any cytotoxicity”. Moreover, the IC50 in the data set “in vitro [2]”, in the data set with SARSCoV and in the data set “in vitro [3]” was > 100 µM each time.

With `Nc1ncnc2c([C@@H]3C=C(CO)[C@@H](O)[C@H]3O)c[nH]c12` [Compound 1, (1′S,2′S,3′R)-4-Amino-7-(2′,3′-dihydroxy-4′-hydroxymethyl-4′-cyclopenten-1′-yl)-5H-pyrrolo[3,2-d]pyrimidine], the “Anti-HIV activity (in words)” value in the data set on HIV-1 (strain LAI) is recorded as “moderate anti-HIV activity”.

On to `Cc1cn([C@H]2C[C@H](N=[N+]=[N-])[C@@H](CO)O2)c(=O)[nH]c1=O` [AZT], for which the IC50 (usually the concentration at which inhibition is half-maximal) in the data set on PBM cells is > 100 µM.

With `Nc1nc(=O)c([C@@H]2C=C(CO)[C@@H](O)[C@H]2O)c[nH]1` [Compound 3, (1′S,2′S,3′R)-5-(2′,3′-Dihydroxy-4′-hydroxymethyl-4′-cyclopenten-1′-yl)-isocytosine], the IC50 in “in vitro [2]”, in the data set on SARSCoV and in “in vitro [3]” was > 100 µM in each case.

`Nc1nc(O)c2[nH]cc([C@@H]3C=C(CO)[C@@H](O)[C@H]3O)c2n1` [Compound 2, (1′S,2′S,3′R)-9-(2′,3′-Dihydroxy-4′-hydroxymethyl-4′-cyclopenten-1′-yl)-deazaguanosine]: the “Cytotoxicity in the Punta Toro virus assay (in words)” value in data set [1] is “without any cytotoxicity”. Moreover, the IC50 in “in vitro [2]”, with SARSCoV and in “in vitro [3]” was > 100 µM each time.

For the origin of these results see paper PMC7127144 (Bioorganic & Medicinal Chemistry, 2006).
